Results as given in US20250179033A1 (priority 2021, published 2025).
Values joined by “and” are separate entries in the source; they are usually repeats but may differ in a detail not shown here. Equal values may be shown once. Read-outs that look alike come from different tables or passages of the source.

Tests used:
[1] = In vivo pharmacokinetics, plasma and brain; design: species or system Balb/C male mice; conditions: 250 mg/kg intragastric; for AUC(0-inf) / MRT / half-life / AUC(0-t) / Cmax: male, Balb/C, mouse, po; for AUC(0-inf) / MRT / half-life / AUC(0-t) / Cmax / CL / Kel / Vd: plasma; for AUC(0-t): read-out: AUC0-7
Method: The pharmacokinetics of compound 1 was studied in white Balb/C male mice. 22 animals with an average body weight of 20 g were selected for the study. Before the study, the animals were kept on a standard vivarium ration with dry pelleted feed. All the test animals had free access to water but were deprived of food for 1 hour before administration of the compound. This regimen was continued for another hour after the administration.
Compound 1 in a dose of 250 mg/kg of body weight was administered as 0.5 ml of prepared suspension in 0.5% CMC by intragastric intubation. The animals were euthanized by decapitation for blood and brain sampling. Blood and brain samples (3 animals per time point) were taken at 0.5, 1, 2, 3, 5 and 7 hours after administration for pharmacokinetic evaluation. Blood was collected in heparinized tubes and centrifuged at 3500 RPM. Plasma was separated from formed elements and immediately frozen at −20° C. in freezer. This storage continued before transferring plasma for analysis. Serum from 6 untreated animals was used as a control and for equipment calibration with the compound. Mice brain was immediately frozen at −120° C.
Plasma separation: Samples of experimental blood ([…]) from animals were centrifuged at 3500 rpm for 15 minutes.
Sample preparation: A mixture of 60 μL of plasma and 180 μL of acetonitrile (MeCN) by intensive shaking (Vortex) for 30 sec. Centrifugation 32000 g for 4 min. After centrifugation the 150 μL of organic layer was injected into the HPLC column.
Equipment: HPLC System Agilent 1290 Infinity, MS spectrometer Agilent 6460 (Agilent Technologies, Santa Clara, California, United States of America)
HPLC conditions: Column: Agilent Eclipse Plus C18 RRHD 1.8 um 2.1×50 mm (Agilent Technologies, Santa Clara, California, United States of America), Temperature: 40° C., Flow speed: 0.4 mL/min
Eluent: A: water, 0.1% formic acid; B: 85% acetonitrile in water, 0.1% formic acid
Gradient: 0.0-3.0 min: 60% B (separation), 3.0-4.0 min: 60->97% B (washing and regeneration), 4.0-6.0 min: 97% B, 6.0-6.1 min: 97->60% B, 6.1-9.0 min: 60% B, Volume of sample: 2 μL. Retention time in above conditions: 2.40 min.
MS conditions: ESI(+), MRM 400->209, Dwell time: 200 ms, Fragmentor: 135 V, Collision energy: 12, Cell Accelerator: 3 V, Gas Temp: 350° C., Gas Flow: 12 I/min, Nebulizer: 35 psi, Sheath gas Temp: 300° C., Capillary Voltage: 3500 V, Nozzle Voltage: 450 V; Diverter valve: 0.0-1.3 min: to waste; 1.3-3.0 min: to MS, data acquisition, 3.0-7.0 min: to MS, idle, 7.0- . . . min: to waste
Brain separation: Samples of experimental brain from animals were dispersed at 25K turn/min for 3 minutes and 100 mg of each sample was balanced to a sterile container.
Sample preparation: A mixture of 100 mg of brain and 100 μL of water was treated by zirconium balls in a homogonisator MagNA Lyser for 30 sec. 300 μL of MeCN was added and intensive shaking (Vortex) for 30 sec was performed. Centrifugation 32000 g for 4 min.
Equipment: HPLC System Agilent 1290 Infinity, MS spectrometer Agilent 6460 (Agilent Technologies, Santa Clara, California, United States of America).
HPLC conditions: Column: Agilent Eclipse Plus C18 RRHD 1.8 um 2.1×50 mm (Agilent Technologies, Santa Clara, California, United States of America), Temperature: 40° C., Flow speed: 0.4 mL/min.
Eluent: A: water, 0.1% formic acid; B: 85% acetonitrile in water, 0.1% formic acid.
Gradient: 0.0-3.0 min: 60% B (separation), 3.0-4.0 min: 60->97% B (washing and regeneration), 4.0-6.0 min: 97% B, 6.0-6.1 min: 97->60% B, 6.1-9.0 min: 60% B, Volume of sample: 2 μL.
Retention time in above conditions: 2.40 min […]

[2] = tested on: E. coli PQ37; assay: Mutagenicity evaluation (SOS-chromotest); assay type: cell-based, Escherichia coli; conditions: 10 mg/mL
Method: Mutagenicity evaluation: Escherichia coli PQ37 strain was grown overnight at 37° C., with shaking, in Luria Broth Base supplemented with 50 μg/mL Ampicillin. Bacteria were grown to mid-logarithmic phase and adjusted to an optical density of 0.4.
The second day, Luria Broth Base supplemented with 1.5% Agar was autoclaved for 15 minutes at 121° C. and then put into a water bath at 55° C. for 1 hour.
80 mL of warm agar was transferred into a plastic bottle (Milian, PETG 2019-0125) supplemented with […] ampicillin and 0.005% X-Gal (dissolved into DMF). 4 mL of E. coli PQ37 was added to the mixture and 70 mL of it was transferred into a square petri dish (Grenier Bio-One, Kremsmunster, Austria, 120×120 mm). Petri dish containing the mixture was dried 15 minutes at RT and once the mixture became solid, 6 mm absorbent disks were stuck on the plate.
5 μL of each compound were added on the disk with a pipet sold under the tradename PIPETMAN® P20 (Gilson S.A.S., Villiers-Le-Bel, France) and the petri dish was incubated overnight at 37° C.
The third day, zones of inhibition were recorded with a ruler and a picture of the plate was taken with a scanner (Canon 8800F, Cannon U.S.A., Inc., Melville, New York, United States of America).
Zone of inhibition was calculated by eye using a ruler and presence/absence of blue halo was reporter.

Nc1nc(Nc2ccc(Cl)cc2)nn1S(=O)(=O)c1ccc2ccccc2c1 [Compound 1, N3-(4-chlorophenyl)-1-(2-naphthylsulfonyl)-1,2,4-triazole-3,5-diamine]
AUC(0-inf) ([1]; 250 mg/kg, mean of mice groups): 6220 ng·h/mL | MRT ([1]; 250 mg/kg, mean of mice groups): 5.9 h | half-life ([1]; 250 mg/kg, mean of mice groups): 4.1 h | AUC(0-t) ([1]; 250 mg/kg, mean of mice groups): 4050 ng·h/mL | AUC(0-inf) ([1]; 250 mg/kg, mice group 1): 6230 ng·h/mL | Cmax ([1]; 250 mg/kg, mice group 1): 1050 ng/mL | MRT ([1]; 250 mg/kg, mice group 1): 7.4 h | half-life ([1]; 250 mg/kg, mice group 1): 5 h | AUC(0-t) ([1]; 250 mg/kg, mice group 1): 3710 ng·h/mL | AUC(0-inf) ([1]; 250 mg/kg, mice group 2): 6890 ng·h/mL | Cmax ([1]; 250 mg/kg, mice group 2): 1170 ng/mL | MRT ([1]; 250 mg/kg, mice group 2): 6.8 h | half-life ([1]; 250 mg/kg, mice group 2): 5 h | AUC(0-inf) ([1]; 250 mg/kg, mice group 3): 5550 ng·h/mL | Cmax ([1]; 250 mg/kg, mice group 3): 1350 ng/mL | MRT ([1]; 250 mg/kg, mice group 3): 3.6 h | half-life ([1]; 250 mg/kg, mice group 3): 2.4 h | AUC(0-t) ([1]; 250 mg/kg, mice group 3): 4080 ng·h/mL | concentrations of the compound in brain ([1]; mice, preliminary, 250 mg/kg): 1-5 μg/ml and 2.5-12.5 μM | CL ([1]; mean of mice groups): 0.809 L/h | Kel ([1]; mean of mice groups): 0.1872 h⁻¹ | Vd ([1]; mean of mice groups): 4.8 L | CL ([1]; mice group 1): 0.803 L/h | Kel ([1]; mice group 1): 0.1382 h⁻¹ | Vd ([1]; mice group 1): 5.8 L | CL ([1]; mice group 2): 0.725 L/h | Kel ([1]; mice group 2): 0.1381 h⁻¹ | Vd ([1]; mice group 2): 5.3 L | CL ([1]; mice group 3): 0.901 L/h | Kel ([1]; mice group 3): 0.2852 h⁻¹ | Vd ([1]; mice group 3): 3.2 L | Genotoxicity in the SOS-chromotest [2]: did not appear to be genotoxic
